# Data published in patent publication US7371764B2, “Quinolin-isoquinolin-and quinazolin-oxyalkylamides and their use as fungicides” (priority 2002, dated 2008).
# Read-outs that look alike come from different tables or passages of the source.
# Key:
# [1] = test system: Pythium ultimum; test: Pythium ultimum (Damping off) growth inhibition in potato dextrose broth, microtiter plate; type: cell-based; conditions: Globisporangium ultimum, 24° C., after 48 hours, read-out: control of fungal infection (inhibition of growth, determined photometrically)
# [2] = test system: Pyrenophora teres; type: in vivo; conditions: 200 ppm
# [3] = test system: Septoria nodorum; type: in vivo; conditions: 200 ppm
# [4] = test system: Puccinia recondita f.sp. tritici; type: in vivo; conditions: 200 ppm
smiles,measurement,setting,value
"CC#CC(C)(C)NC(=O)C(COC)Oc1ccc2ncccc2c1 (centres unmarked) [2(11), 2-(6-quinolinyloxy)-N-(2-methylpent-3-yn-2-yl)-3-methoxypropionamide]",inhibition at 20 ppm,[1]; potato dextrose broth,> 60%
"CC#CC(C)(C)NC(=O)C(CC)Oc1ccc2ncncc2c1 (centres unmarked) [2(20), 2-(6-quinazolinoxy)-N-(4-methylpent-2-yn-4-yl) butyramide]",control of fungal infection (preventive fungicidal activity),[2],more than 60%
"CC#CC(C)(C)NC(=O)C(COC)Oc1ccc2ccncc2c1 (centres unmarked) [2(49), 2-(7-isoquinolinyloxy)-N-(2-methylpent-3-yn-2-yl)-3-methoxypropionamide]",inhibition at 20 ppm,[1]; potato dextrose broth,> 60%
same,melting point,,155 to 156 °C
"CCC(Oc1ccc2ncccc2c1)C(=O)NC(C)(C)C#CCO (centres unmarked) [10(1), 2-(6-quinolinyloxy)-N-(1-hydroxy-4-methylpent-2-yn-4-yl) butyramide]",control of fungal infection (preventive fungicidal activity),[3],more than 60%
"CCC(Oc1ccc2ncccc2c1)C(=O)NC(C)(C)C#CCOC (centres unmarked) [12(1), 2-(6-quinolinyloxy)-N-(1-methoxy-4-methylpent-2-yn-4-yl)butyramide]",inhibition at 20 ppm,[1],> 60%
"CCC(Oc1ccc2ncccc2c1)C(=O)NC(C)(C)C#CCO[Si](C)(C)C(C)(C)C (centres unmarked) [50(1), 2-(6-quinolinyloxy)-N-(1-tert-butyldi-methylsilyloxy-4-methylpent-2-yn-4-yl)butyramide]",inhibition at 20 ppm,[1],> 60%
"CCC(Oc1ccc2ncc(Br)cc2c1)C(=O)NC(C)(C)C#CCCCC#N (centres unmarked) [90(77), 2-(3-bromo-6-quinolinyloxy)-N-(1-cyano-6-methylhept-4-yn-6-yl) butyramide]",control of fungal infection (preventive fungicidal activity),[4],more than 60%
